Measurements taken from patent US6737383B1, “Herbicidal oxadiazolidines” (priority 1999, dated 2004).

Tests used:
winter wheat [1] = test: Test E winter wheat; format: in vivo, Triticum aestivum; conditions: Postemergence
Procedure, shortened: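 Visually scored herbicidal effect relative to untreated plants, taken ~21 to 28 days post-application; compound in solvent with surfactant; postemergence sprays at the 1- to 4-leaf stage.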

wild oat = test: Test E wild oat; format: in vivo, Avena fatua; conditions: Preemergence
crabgrass = test: Test B pre/postemergence crabgrass; format: in vivo, Digitaria sanguinalis
Procedure, shortened: (§1)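 Test chemicals in a non-phytotoxic solvent mixture with surfactant were sprayed preemergence onto planted seeds and postemergence onto plants 2 to 18 cm tall (1- to 4-leaf stage). After twelve to sixteen days in a greenhouse, injury was visually rated against untreated controls from 0 (no effect) to 10 (complete control).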

green foxtail = test: Test E green foxtail; format: in vivo, Setaria viridis; conditions: Preemergence
blackgrass [2] = test: Test E blackgrass; format: in vivo, Alopecurus myosuroides; conditions: Preemergence
bamyardgrass = test: Test B flood test barnyardgrass; format: in vivo, Echinochloa crus-galli
Procedure, shortened: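 Plants were grown to the 2-leaf stage before treatment with test chemical, then held in a greenhouse for twelve to sixteen days. Injury was visually rated against untreated controls on a 0–10 scale, where 0 is no effect and 10 is complete control.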

winter barley = test: Test E winter barley; format: in vivo, Hordeum vulgare; conditions: Preemergence
winter wheat [3] = test: Test E winter wheat; format: in vivo, Triticum aestivum; conditions: Preemergence
morningglory = test: Test B pre/postemergence morningglory; format: in vivo, Ipomoea hederacea
Procedure, shortened: as §1

Italian ryegrass = test: Test E Italian ryegrass; format: in vivo, Lolium multiflorum; conditions: Preemergence
blackgrass [4] = test: Test B pre/postemergence blackgrass; format: in vivo, Alopecurus myosuroides
Procedure, shortened: as §1

[5] = Rate 62 g/ha, 0 to 100 scale, 0 no effect, 100 complete control
[6] = Rate 125 g/ha, 0 to 100 scale (0 no effect, 100 complete control)
[7] = Postemergence, Rate 125 g/ha, scale of 0 to 10 where 0 is no effect and 10 is complete control
[8] = Postemergence, Rate 250 g/ha, scale 0 to 10, 0 no effect, 10 complete control
[9] = Preemergence, Rate 62 g/ha, scale 0 to 10 (0 no effect, 10 complete control)
[10] = Preemergence, Rate 125 g/ha, scale 0 to 10 (0 no effect, 10 complete control)
[11] = Preemergence, Rate 250 g/ha, scale of 0 to 10 where 0 is no effect and 10 is complete control
[12] = Preemergence, Rate 500 g/ha, scale 0 to 10 (0 no effect, 10 complete control)
[13] = Rate 62 g/ha, Postemergence, scale of 0 to 10 where 0 is no effect and 10 is complete control
[14] = Rate 500 g/ha, Postemergence, scale 0 to 10, 0 no effect, 10 complete control

CC(C)N(C(=O)n1oc(=O)n(C2CCCCC2)c1=O)c1ccc(Cl)cc1 [Compound 111]
1: Crabgrass plant response rating (crabgrass; [13])
7: Plant response rating, Crabgrass (crabgrass; [10]) | Blackgrass plant response rating (blackgrass [4]; [14])
5: Morningglory plant response rating (morningglory; [7]) | Morningglory plant response rating (morningglory; [8]) | Blackgrass plant response rating (blackgrass [4]; [8]) | Blackgrass plant response rating (blackgrass [4]; [12])
10: Plant response rating, Green foxtail (green foxtail; Rate 250 g/ha, 0 to 100 scale)
6: Crabgrass plant response rating (crabgrass; [9])
2: Crabgrass plant response rating (crabgrass; [7]) | Plant response rating, Blackgrass (blackgrass [4]; [11])
0: Plant response rating, Wheat (winter) (winter wheat [1]; Rate 62 g/ha, 0 to 100 scale) | Plant response rating, Wheat (winter) (winter wheat [1]; Rate 125 g/ha, 0 to 100 scale) | Plant response rating, Wheat (winter) (winter wheat [1]; Rate 250 g/ha, 0 to 100 scale (0 no effect, 100 complete control)) | Plant response rating, Wild oat (wild oat; [5]) | Plant response rating, Wild oat (wild oat; [6]) | Plant response rating, Green foxtail (green foxtail; [5]) | Plant response rating, Green foxtail (green foxtail; [6]) | Plant response rating, Blackgrass (blackgrass [2]; [5]) | Plant response rating, Blackgrass (blackgrass [2]; [6]) | Plant response rating, Blackgrass (blackgrass [2]; Rate 250 g/ha, 0 to 100 scale) | Barnyardgrass plant response rating (bamyardgrass; Postemergence, Rate 62 g/ha, scale 0 to 10, 0 is no effect, 10 is complete control) | Barnyardgrass plant response rating (bamyardgrass; Rate 125 g/ha, Postemergence section (flood test species), scale 0 to 10, 0 no effect, 10 complete control) | Barnyardgrass plant response rating (bamyardgrass; Rate 250 g/ha, headed Pre-emergence (flood test species), scale 0 to 10 (0 no effect, 10 complete control)) | Plant response rating, Barnyardgrass (bamyardgrass; Rate 500 g/ha, headed Pre-emergence (flood test species), scale 0 to 10 (0 no effect, 10 complete control)) | Barnyardgrass plant response rating (bamyardgrass; Rate 500 g/ha, listed under Postemergence (flood test species), scale 0 to 10, 0 no effect, 10 complete control) | Barnyardgrass plant response rating (bamyardgrass; Rate 1000 g/ha, Pre-emergence (as headed), scale 0 to 10) | Barnyardgrass plant response rating (bamyardgrass; flood test, listed under Postemergence, Rate 250 g/ha, scale 0 to 10, 0 no effect, 10 complete control) | Plant response rating, Barley (winter) (winter barley; [5]) | Plant response rating, Barley (winter) (winter barley; [6]) | Plant response rating, Barley (winter) (winter barley; Rate 250 g/ha, 0 to 100 scale) | Plant response rating, Wheat (winter) (winter wheat [3]; [5]) | Plant response rating, Wheat (winter) (winter wheat [3]; [6]) | Plant response rating, Wheat (winter) (winter wheat [3]; Rate 250 g/ha, 0 to 100 scale) | Morningglory plant response rating (morningglory; [9]) | Plant response rating, Morningglory (morningglory; [10]) | Plant response rating, Morningglory (morningglory; [11]) | Morningglory plant response rating (morningglory; [12]) | Plant response rating, I. Ryegrass (Italian ryegrass; [5]) | Plant response rating, I. Ryegrass (Italian ryegrass; [6]) | Plant response rating, I. Ryegrass (Italian ryegrass; Rate 250 g/ha, 0 to 100 scale) | Blackgrass plant response rating (blackgrass [4]; [9]) | Plant response rating, Blackgrass (blackgrass [4]; [10]) | Blackgrass plant response rating (blackgrass [4]; [13])
4: Morningglory plant response rating (morningglory; [13])
8: Morningglory plant response rating (morningglory; [14])
9: Plant response rating, Crabgrass (crabgrass; [11]) | Crabgrass plant response rating (crabgrass; [12]) | Crabgrass plant response rating (crabgrass; [14]) | Barnyardgrass plant response rating (bamyardgrass; Rate 2000 g/ha, Pre-emergence (as headed), scale 0 to 10, 0 no effect, 10 complete control)
3: Crabgrass plant response rating (crabgrass; [8]) | Blackgrass plant response rating (blackgrass [4]; [7])
